This note sets out measurements from US20070155764A1, “NOVEL SUBSTITUTED PYRIMIDINYLOXY UREAS USEFUL AS INHIBITORS OF PROTEIN KINASES” (KALYPSYS, INC., priority 2005, published 2007).

Data set [1] deals with T1, human B-Raf protein kinase (Homo sapiens, UniProt P15056).
T1 construct: GST (N); purchased Upstate Inc. 14-530 (B-Raf); 14-420 (Mek1)
As to the kind of experiment: In vitro B-Raf/Mek1 composite kinase assay. Particulars: recombinant GST-tagged human B-Raf (Δ1-415) with inactive Mek1, 2 μM ATP. Format: biochemical. The method, boiled down: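 Luminescent ATP-depletion assay using recombinant N-terminal GST-tagged human B-Raf (Δ1-415, 1 ng/well) in MOPS pH 7.2 buffer with 10 mM MgCl2. Compounds were preincubated 15 min at about 22° C, then the reaction ran 2 h before PKLight readout. Efficacy is expressed as percentage of positive-control (Bay 43-9006) activity.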

For data set [2], the system named is HT-29 human colon carcinoma tumor cells. As to the kind of experiment: In vivo anti-tumor activity, HT-29 xenograft. The conditions noted are these: 60 mg/kg once daily by oral gavage; for T/C (%): HT-29 subcutaneous tumors in female Balb/C nu/nu mice, treated/control average tumor size at end of study; for Survival: HT-29 tumor-bearing female Balb/C nu/nu mice, surviving/total. How it is done: In Vivo Anti-Tumor Activity
Acclimated female Balb/C nu/nu mice are injected subcutaneously into the flank with cell pellets of 5×10^6 HT-29 human colon carcinoma tumor cells (ATCC #HTB-38). The mice are fed sterile rodent chow and water ad libitum, and kept in pathogen-free, sterile-filtered cages with half-day light/dark cycles. Tumors are allowed to grow until they reach an average size of 100-150 mm^3, determined by caliper measurement. One day before beginning treatment, mice are randomized by tumor size into evenly distributed cohorts. Mice are dosed once daily by oral gavage (10 ml/kg) with compounds formulated as solutions in Cremaphor EL:Ethanol:Water, at a 1:1:6 ratio. Control mice are dosed with the formulation vehicle only. Tumor size and mouse weight are monitored every three to four days. At the end of the study, treatment efficacy is determined by the T/C value, calculated by dividing the average tumor size of a compound-treated cohort by the average tumor size of the control-treated cohort, expressed as a percentage. Therefore, anti-tumor efficacy is inversely proportional to the T/C.

In the next data set the target is T2, PDGFRβ kinase (Homo sapiens, UniProt P09619).
T2 construct: purchased Invitrogen Inc. P3082
As to the kind of experiment: In vitro PDGFRβ kinase assay. Format: biochemical. The conditions noted are these: ADP Quest assay, poly Glu:Tyr substrate, 60 μM ATP. The method, boiled down:
(§1)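 Compound was preincubated 10 min at ~22 °C with 20 ng VEGFR2 or 25 ng PDGFRβ, then poly Glu:Tyr (4:1) substrate (0.25 μg) with 60 μM ATP (in added buffer) was reacted 2 h at 30 °C. ADP Quest resorufin fluorescence was read (ex 530/em 580) after 30 min. Efficacy is expressed as percent of positive-control (Bay 43-9006) activity, with DMSO as negative control.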

In another data set the target is T3, VEGFR2 kinase (Homo sapiens, UniProt P35968).
T3 construct: purchased Invitrogen Inc PV3660
As to the kind of experiment: In vitro VEGFR2 kinase assay. Format: biochemical. The conditions noted are these: ADP Quest assay, poly Glu:Tyr substrate, 60 μM ATP. A digest of the protocol:
as §1

T3 sequence (P35968 20-1356): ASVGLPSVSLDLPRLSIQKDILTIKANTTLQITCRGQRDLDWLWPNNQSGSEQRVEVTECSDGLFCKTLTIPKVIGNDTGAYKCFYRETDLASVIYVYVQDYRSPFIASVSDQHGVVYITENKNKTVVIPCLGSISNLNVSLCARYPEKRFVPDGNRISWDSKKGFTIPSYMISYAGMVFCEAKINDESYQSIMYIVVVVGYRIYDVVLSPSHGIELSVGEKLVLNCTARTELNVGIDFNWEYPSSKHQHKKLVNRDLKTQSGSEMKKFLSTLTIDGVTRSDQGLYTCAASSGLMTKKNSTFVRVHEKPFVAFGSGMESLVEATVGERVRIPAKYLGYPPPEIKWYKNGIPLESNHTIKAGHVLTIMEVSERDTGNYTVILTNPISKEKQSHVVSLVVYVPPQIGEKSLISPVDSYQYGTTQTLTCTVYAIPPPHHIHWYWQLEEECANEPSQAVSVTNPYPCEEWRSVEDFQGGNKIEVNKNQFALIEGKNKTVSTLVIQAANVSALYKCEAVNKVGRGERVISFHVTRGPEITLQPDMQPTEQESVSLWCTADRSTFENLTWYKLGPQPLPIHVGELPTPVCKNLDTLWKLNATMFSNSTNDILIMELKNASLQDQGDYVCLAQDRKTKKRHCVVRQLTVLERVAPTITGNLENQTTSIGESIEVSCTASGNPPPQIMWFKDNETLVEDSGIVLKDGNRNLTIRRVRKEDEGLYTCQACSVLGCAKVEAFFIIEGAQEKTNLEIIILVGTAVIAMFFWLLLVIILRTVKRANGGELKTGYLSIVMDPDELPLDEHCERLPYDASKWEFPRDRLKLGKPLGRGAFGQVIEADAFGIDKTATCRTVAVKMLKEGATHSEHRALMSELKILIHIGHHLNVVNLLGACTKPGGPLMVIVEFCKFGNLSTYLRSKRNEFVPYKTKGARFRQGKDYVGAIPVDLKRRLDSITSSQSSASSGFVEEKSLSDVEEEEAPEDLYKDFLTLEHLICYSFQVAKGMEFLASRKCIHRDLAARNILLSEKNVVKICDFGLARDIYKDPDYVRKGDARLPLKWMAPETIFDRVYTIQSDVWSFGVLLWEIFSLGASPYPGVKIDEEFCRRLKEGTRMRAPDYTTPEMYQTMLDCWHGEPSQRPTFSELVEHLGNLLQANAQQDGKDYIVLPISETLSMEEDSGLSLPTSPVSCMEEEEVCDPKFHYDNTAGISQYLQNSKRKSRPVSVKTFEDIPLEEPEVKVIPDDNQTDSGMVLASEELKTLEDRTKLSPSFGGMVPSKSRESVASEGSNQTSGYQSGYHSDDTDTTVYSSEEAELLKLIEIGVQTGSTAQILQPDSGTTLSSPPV
T1 sequence (P15056 416-766): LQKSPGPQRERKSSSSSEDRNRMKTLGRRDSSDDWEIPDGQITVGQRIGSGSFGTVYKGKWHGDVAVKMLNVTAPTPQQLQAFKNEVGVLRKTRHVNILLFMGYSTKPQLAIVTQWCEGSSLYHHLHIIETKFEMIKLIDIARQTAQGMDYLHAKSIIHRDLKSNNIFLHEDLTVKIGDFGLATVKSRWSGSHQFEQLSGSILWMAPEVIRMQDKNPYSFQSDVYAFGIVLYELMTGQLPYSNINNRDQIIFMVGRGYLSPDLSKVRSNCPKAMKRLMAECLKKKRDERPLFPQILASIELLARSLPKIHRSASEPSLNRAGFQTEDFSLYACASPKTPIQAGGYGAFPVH
T2 sequence (P09619 33-1106): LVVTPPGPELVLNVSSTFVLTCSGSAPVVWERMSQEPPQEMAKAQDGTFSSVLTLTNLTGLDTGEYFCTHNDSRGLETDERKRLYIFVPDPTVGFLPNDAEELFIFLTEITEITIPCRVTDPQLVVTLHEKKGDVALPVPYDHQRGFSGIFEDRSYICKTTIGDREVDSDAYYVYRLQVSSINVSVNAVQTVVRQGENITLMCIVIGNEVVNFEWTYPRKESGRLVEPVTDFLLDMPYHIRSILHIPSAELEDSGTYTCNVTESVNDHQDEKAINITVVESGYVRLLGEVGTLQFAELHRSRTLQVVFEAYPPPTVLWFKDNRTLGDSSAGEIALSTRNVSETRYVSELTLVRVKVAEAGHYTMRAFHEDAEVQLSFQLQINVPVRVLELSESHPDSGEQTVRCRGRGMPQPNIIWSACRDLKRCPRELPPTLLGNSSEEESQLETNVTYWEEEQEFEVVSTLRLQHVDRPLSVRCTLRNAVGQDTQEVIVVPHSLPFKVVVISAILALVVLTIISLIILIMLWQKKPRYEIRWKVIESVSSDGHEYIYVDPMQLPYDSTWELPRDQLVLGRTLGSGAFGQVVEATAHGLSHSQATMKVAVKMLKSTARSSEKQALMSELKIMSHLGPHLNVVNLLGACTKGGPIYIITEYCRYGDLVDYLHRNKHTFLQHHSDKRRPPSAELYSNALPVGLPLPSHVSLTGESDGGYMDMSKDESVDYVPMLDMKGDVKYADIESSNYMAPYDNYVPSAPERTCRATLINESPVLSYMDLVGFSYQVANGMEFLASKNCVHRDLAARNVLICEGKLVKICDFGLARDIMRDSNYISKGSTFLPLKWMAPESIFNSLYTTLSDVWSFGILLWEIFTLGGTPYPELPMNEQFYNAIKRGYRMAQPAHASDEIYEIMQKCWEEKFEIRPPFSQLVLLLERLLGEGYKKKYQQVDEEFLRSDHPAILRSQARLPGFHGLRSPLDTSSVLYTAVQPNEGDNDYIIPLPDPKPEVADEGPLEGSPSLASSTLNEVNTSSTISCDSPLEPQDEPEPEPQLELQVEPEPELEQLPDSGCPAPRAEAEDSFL

For the molecule `Cn1cc(-c2cc(Oc3cccc(NC(=O)Nc4ccc(Cl)c(C(F)(F)F)c4)c3)ncn2)cn1` [Example 34, 1-(4-Chloro-3-(trifluoromethyl)phenyl)-3-(3-(6-(1-methyl-1H-pyrazol-4-yl)pyrimidin-4-yloxy)phenyl)urea], the IC50 (in data set [1]; against PDGFRβ kinase; against VEGFR2 kinase) was not above 10 µM in each case. The “T/C (%)” value in data set [2] turned out to be 20%. For the same molecule, the Survival in data set [2] is listed as 10/10.
For the molecule `Cn1cc(-c2nccc(Oc3ccc(NC(=O)Nc4ccc(Cl)c(C(F)(F)F)c4)cc3)n2)cn1` [Example 65, 1-(4-Chloro-3-(trifluoromethyl)phenyl)-3-(4-(2-(1-methyl-1H-pyrazol-4-yl)pyrimidin-4-yloxy)phenyl)urea], the concentration for half-maximal inhibition (IC50) (in data set [1]; against PDGFRβ kinase; on VEGFR2 kinase) was not above 10 µM throughout. Also, the “T/C (%)” value in data set [2] was 25%. In addition, in data set [2], the Survival is 10/10.
Consider `Cn1cc(-c2cc(Oc3ccc(F)c(NC(=O)Nc4ccc(Cl)c(C(F)(F)F)c4)c3)ncn2)cn1` [Example 66, 1-(4-Chloro-3-(trifluoromethyl)phenyl)-3-(2-fluoro-5-(6-(1-methyl-1H-pyrazol-4-yl)pyrimidin-4-yloxy)phenyl)urea], for which the IC50 (in data set [1]; on PDGFRβ kinase; at VEGFR2 kinase) was not above 10 µM in each case. The “T/C (%)” value in data set [2] is given as 11%. Besides, the Survival in data set [2] is on record as 10/10.
As for `Cn1cc(-c2cc(Oc3cccc(NC(=O)Nc4ccc(C(F)(F)F)cc4)c3)ncn2)cn1` [Example 87, 1-(3-(6-(1-Methyl-1H-pyrazol-4-yl)pyrimidin-4-yloxy)phenyl)-3-(4-(trifluoromethyl)phenyl)urea], the concentration for half-maximal inhibition (IC50) (in data set [1]; at PDGFRβ kinase; against VEGFR2 kinase) was not above 10 µM throughout. The “T/C (%)” value in data set [2] was determined as 15%. Moreover, the Survival in data set [2] is 10/10.
